As a reminder, the IC50 is the concentration at which inhibition is half-maximal.

Experimental findings from publication PMC6273599, “Sesquiterpenoids and Diterpenoids from the Wood of Cunninghamia konishii and Their Inhibitory Activities against NO Production” (Molecules, 2016) are described below.

Molecules are shown by their SMILES. ≈ marks a conversion by molar mass, not a printed value.

What all share (type): cell-based, murine
In data set [1] the test system is LPS-stimulated RAW 264.7 cells. Description: Inhibition of LPS-induced nitric oxide production (Griess nitrite measurement). Conditions: LPS (100 ng/mL)-stimulated RAW 264.7 cells, 24 h, Griess reaction, mean ± SD of three replicates; for IC50: Mus musculus, RAW264.7, read-out: Inhibition of NO Production IC50. The text has this:
(§1) Nitric oxide (NO) is derived from the oxidation of L-arginine by NO synthase (NOS) and is recognized as a mediator and regulator in biological actions, especially in inflammatory responses. In inflammation and carcinogenesis conditions, there is an increased production of NO by inducible NO synthase (iNOS). Thus, inhibitors of NO might be of therapeutic importance in preventing pathological conditions catalyzed by inflammation. Macrophages contain various chemical mediators that may be responsible for several inflammatory stages and have been expected to be an origin of inflammation. iNOS mainly exists in macrophages and can be induced by pro-inflammatory agents lipopolysaccharides (LPS). […] In this study, the inhibitory activity toward NO production of four sesquiterpenoids (1, 4, 5, and 6) and eight diterpenoids (8–15) was evaluated by measurement of nitrite/nitrate in LPS-stimulated RAW 264.7 cells. To search for the appropriate concentrations for the above assay, these 12 compounds were first tested their cytotoxic activity against the RAW 264.7 cells, and no significant cytotoxic activities were observed under all tested concentrations (Table 3).
(§2) A murine macrophage cell line RAW264.7 (BCRC No. 60001) was obtained from the Bioresources Collection and Research Center (BCRC) of the Food Industry Research and Development Institute (Hsinchu, Taiwan). Cells were maintained in Dulbecco’s Modified Eagle Medium (DMEM, Sigma, St. Louis, MO, USA) supplemented with 10% fetal bovine serum (FBS, Sigma). Cells were cultured in a humidified atmosphere with 5% CO2 at 37 °C and subcultured every three days at a dilution of 1:5 using 0.05% trypsin-0.02% EDTA in Ca^2+-, Mg^2+-free phosphate-buffered saline (DPBS).
The anti-inflammatory activity of compounds was evaluated by using a nitric oxide (NO) inhibitory activity assay. As a stable NO metabolite, production of NO was indirectly determined by Griess reaction to measure the concentration of nitrite in the culture medium. The cells were incubated with test compounds (0, 2.5, 5, 10, 20 and 40 μg/mL) in the presence of LPS (100 ng/mL) at 37 °C for 24 h. Then, cells were dispensed into 96-well plates, and 100 μL of each supernatant was reacted with an equal volume of Griess reagent (1% sulfanilamide, 0.1% naphthyl ethylenediamine dihydrochloride and 5% phosphoric acid) and incubated at room temperature for 10 min. Absorbance was then measured at 540 nm using a Micro-Reader (Molecular Devices Orleans Drive, Sunnyvale, CA, USA). A standard curve was generated, using freshly prepared 0–100 μM […] dissolved in assay buffer, to quantitate unknown nitrite in samples.
(§3) The data is expressed as means ± standard errors (SE). The IC50 values were calculated from the dose curves using a non-linear regression algorithm (SigmaPlot 8.0; SPSS Inc., Chicago, IL, USA, 2002). Statistical evaluation was carried out by one-way analysis of variance (ANOVA followed by Scheffe’s multiple range tests).

A short description of data set [2]: Cell viability / cytotoxicity (MTT). The conditions noted are these: mouse, RAW 264.7 macrophage cells, RAW 264.7 cells, 24 h with test compound in presence of 100 ng/mL LPS, mean ± SD of three replicates.
Source text: as §1, §2
(§4) Cells (2 × 10^5) were cultured in 96-well plate containing DMEM supplemented with 10% FBS. After 24 h of cells incubation, cells were cultured with test compounds in the presence of 100 ng/mL LPS (lipopolysaccharide) for 24 h. Untreated cells served as the control. After that, the cells were washed twice with DPBS and 100 μL of 0.5 mg/mL MTT was added to each well for further 2 h incubation at 37 °C. The medium was then discarded, and the colored crystals of produced formazan were dissolved in 100 μL dimethyl sulfoxide (DMSO). After 30 min incubation, the absorbance was measured at 570 nm on a microplate reader (Molecular Devices).
as §3

Data set [3] has as its system RAW 264.7 cells. Description: Cell viability / cytotoxicity (MTT). The conditions noted are these: 24 h with test compound in presence of 100 ng/mL LPS, mean ± SD of three replicates.
Source text: as §1, §2, §4, §3

With `C=C[C@]1(C)C=C2CC[C@@H]3[C@](C)(CCC[C@@]3(C)C(=O)O)[C@H]2CC1` [Compound 8, sandaracopimaric acid], in data set [1], the IC50 was above 20 µg/mL. In data set [2], the IC50 at 24 h is above 20 µg/mL.

On to `C=CC(=C)CCC1C(C)(O)CCC2C(C)(C=O)CCCC12C` (centres unmarked) [Compound 11], for which the IC50 in data set [1] is above 20 µg/mL. Further, in data set [2], the IC50 at 24 h is above 20 µg/mL.

For `CC(=O)C=CC1C(C)(O)CCC2C(C)(C)CCCC21C` (stereo not drawn) [Compound 10, 8α-hydroxy-15,16-bisnorlabda-11-en-13-one], in data set [1], the IC50 worked out at 11.4 ± 0.62 µg/mL (≈ 41.1 µM). Also, the IC50 at 24 h in data set [2] was above 20 µg/mL.

As to `CC(=O)OC(C)(C)C1CCC2(C)CCCC(C)(O)C2C1` (stereo not drawn) [Compound 5, 11-acetoxyeudesman-4α-ol], the “Inhibition of NO Production IC50” value in data set [1] was above 20 µg/mL. For the same compound, the “Cytotoxicity IC50” value in data set [3] is above 20 µg/mL.

Take `CC1CCC2(C)CC3CCC12C(O)C3(C)C` (stereo not drawn) [Compound 1, 2α-hydroxy-3,3,6α,9β-tetramethyltricyclo[4,3,2^1,4]undecane]: the IC50 in data set [1] was above 20 µg/mL. For the same compound, the IC50 at 24 h in data set [2] is above 20 µg/mL.

As to `C=C1CCC2C(C)(C(=O)O)CCCC2(C)C1CC1OCC=C1C` (centres unmarked) [Compound 14], in data set [1], the IC50 is above 20 µg/mL. For the same compound, the IC50 at 24 h in data set [2] is above 20 µg/mL.

As to `COc1ccc2c(c1)c(CC(=O)O)c(C)n2C(=O)c1ccc(Cl)cc1` [indomethacin, reference compound], the IC50 in data set [1] was determined as 65.4 ± 1.8 µg/mL (≈ 183 µM). Also, the concentration for half-maximal inhibition (IC50) at 24 h in data set [2] is above 100 µg/mL.

Turning to `C=CC1(C)OC2(C)CCC3C(C)(CO)CCCC3(C)C2CC1O` (centres unmarked) [Compound 13], in data set [1], the IC50 is above 20 µg/mL. Further, the IC50 at 24 h in data set [2] is above 20 µg/mL.

`Cc1ccc(C(C)C)c2c1[C@H](O)[C@@H](O)[C@@H](C)C2` [Compound 6, 2α,3β-dihydroxy-4β-methyl-6,8,10-cadinatriene]: the IC50 in data set [1] was above 20 µg/mL. Further, in data set [2], the IC50 at 24 h is above 20 µg/mL.

Take `C=CC(C)=CCC1C(=C)CCC2C(C)(CO)CCCC12C` (centres unmarked) [Compound 9, elliotinol]: the IC50 in data set [1] is above 20 µg/mL. Besides, the half-inhibitory concentration (IC50) at 24 h in data set [2] is above 20 µg/mL.

As for `C=CC(C)(O)CCC1C(C)(O)CCC2C(C)(C)CCCC21C` (centres unmarked) [Compound 15], the IC50 in data set [1] turned out to be 13.1 ± 0.55 µg/mL (≈ 42.4 µM). Besides, the IC50 at 24 h in data set [2] was above 20 µg/mL.

For `C=C1CCC2C(C)(CO)CCCC2(C)C1C=CC(C)=O` (centres unmarked) [Compound 12], the half-inhibitory concentration (IC50) in data set [1] was above 20 µg/mL. For the same compound, the IC50 at 24 h in data set [2] is above 20 µg/mL.

Take `CC(=O)OC(C)(C)C1CCC2(C)CCCC(C)(O)C2C1` (stereo not drawn) [Compound 4, 11-acetoxyeudesman-4β-ol]: the IC50 in data set [1] was above 20 µg/mL. Besides, the half-maximal inhibitory concentration (IC50) at 24 h in data set [2] was above 20 µg/mL.
